Numbers after ± are expanded uncertainties.
Assay: activity coefficient (dimensionless); of the first substance listed, at infinite dilution; xn = mol fraction of the nth substance listed
Conditions: Liquid, Chromatography, x1 = 0

Row | SMILES | activity coefficient (318.15 K) | activity coefficient (323.15 K) | activity coefficient (333.15 K) | activity coefficient (343.15 K) | activity coefficient (353.15 K)
1 | COCCOC [1,2-dimethoxyethane] + CCn1cc[n+](C)c1.CS(=O)(=O)[O-] | 5.58 ± 0.38 | 5.62 ± 0.38 | 5.69 ± 0.39 | 5.75 ± 0.39 | 5.8 ± 0.4
2 | Cc1cccc(C)c1 [1,3-dimethylbenzene] + CCn1cc[n+](C)c1.CS(=O)(=O)[O-] | 20.8 ± 2.2 | 20.5 ± 2.2 | 19.9 ± 2.1 | 19.3 ± 2 | 18.8 ± 2
3 | FC(F)(F)C(Cl)Br (stereo not given) [1-bromo-1-chloro-2,2,2-trifluoroethane] + CCn1cc[n+](C)c1.CS(=O)(=O)[O-] | 0.586 ± 0.042 | 0.632 ± 0.044 | 0.739 ± 0.049 | 0.843 ± 0.054 | 0.96 ± 0.06
4 | COC(C)(C)C [2-methoxy-2-methylpropane] + CCn1cc[n+](C)c1.CS(=O)(=O)[O-] | 34.6 ± 2.4 | 33.8 ± 2.3 | 32.6 ± 2.2 | 31.8 ± 2.2 | 30.9 ± 2.1
5 | CC(C)=O [acetone] + CCn1cc[n+](C)c1.CS(=O)(=O)[O-] | 2.46 ± 0.17 | 2.47 ± 0.17 | 2.47 ± 0.17 | 2.48 ± 0.17 | 2.49 ± 0.17
6 | CC#N [acetonitrile] + CCn1cc[n+](C)c1.CS(=O)(=O)[O-] | 0.862 ± 0.055 | 0.873 ± 0.056 | 0.887 ± 0.056 | 0.9 ± 0.057 | 0.912 ± 0.058
7 | c1ccccc1 [benzene] + CCn1cc[n+](C)c1.CS(=O)(=O)[O-] | 4.51 ± 0.47 | 4.5 ± 0.47 | 4.48 ± 0.47 | 4.48 ± 0.47 | 4.46 ± 0.47
8 | CCC(C)=O [butanone] + CCn1cc[n+](C)c1.CS(=O)(=O)[O-] | 4.48 ± 0.31 | 4.46 ± 0.3 | 4.48 ± 0.31 | 4.41 ± 0.3 | 4.38 ± 0.3
9 | C1CCCCC1 [cyclohexane] + CCn1cc[n+](C)c1.CS(=O)(=O)[O-] | 123 ± 13 | 115 ± 12 | 103 ± 11 | 93.2 ± 9.8 | 84.3 ± 8.9
10 | ClCCl [dichloromethane] + CCn1cc[n+](C)c1.CS(=O)(=O)[O-] | 0.7 ± 0.047 | 0.727 ± 0.048 | 0.78 ± 0.051 | 0.833 ± 0.054 | 0.887 ± 0.056
11 | CC(C)OC(C)C [diisopropyl ether] + CCn1cc[n+](C)c1.CS(=O)(=O)[O-] | 127 ± 26 | 122 ± 25 | 114 ± 23 | 107 ± 22 | 101 ± 20
12 | COC(=O)OC [dimethyl carbonate] + CCn1cc[n+](C)c1.CS(=O)(=O)[O-] | 3.18 ± 0.22 | 3.17 ± 0.22 | 3.16 ± 0.22 | 3.15 ± 0.21 | 3.14 ± 0.21
13 | CCO [ethanol] + CCn1cc[n+](C)c1.CS(=O)(=O)[O-] | 0.513 ± 0.038 | 0.509 ± 0.038 | 0.501 ± 0.038 | 0.496 ± 0.038 | 0.493 ± 0.038
14 | CCOC(C)=O [ethyl acetate] + CCn1cc[n+](C)c1.CS(=O)(=O)[O-] | 7.32 ± 0.5 | 7.29 ± 0.5 | 7.22 ± 0.49 | 7.17 ± 0.49 | 7.12 ± 0.49
15 | CCc1ccccc1 [ethylbenzene] + CCn1cc[n+](C)c1.CS(=O)(=O)[O-] | 19.1 ± 2 | 18.8 ± 2 | 18.3 ± 1.9 | 17.8 ± 1.9 | 17.3 ± 1.8
16 | CCC1CCCCC1 [ethylcyclohexane] + CCn1cc[n+](C)c1.CS(=O)(=O)[O-] | 344 ± 36 | 326 ± 34 | 291 ± 31 | 262 ± 28 | 237 ± 25
17 | CCCCCCC [heptane] + CCn1cc[n+](C)c1.CS(=O)(=O)[O-] | 637 ± 130 | 596 ± 120 | 523 ± 110 | 471 ± 96 | 422 ± 86
18 | CO [methanol] + CCn1cc[n+](C)c1.CS(=O)(=O)[O-] | 0.238 ± 0.029 | 0.239 ± 0.029 | 0.242 ± 0.03 | 0.244 ± 0.03 | 0.247 ± 0.03
19 | COC(C)=O [methyl ethanoate] + CCn1cc[n+](C)c1.CS(=O)(=O)[O-] | 3.59 ± 0.24 | 3.6 ± 0.25 | 3.61 ± 0.25 | 3.63 ± 0.25 | 3.66 ± 0.25
20 | CC1CCCCC1 [methylcyclohexane] + CCn1cc[n+](C)c1.CS(=O)(=O)[O-] | 211 ± 22 | 198 ± 21 | 177 ± 19 | 160 ± 17 | 147 ± 16
21 | C[N+](=O)[O-] [nitromethane] + CCn1cc[n+](C)c1.CS(=O)(=O)[O-] | 0.612 ± 0.043 | 0.621 ± 0.043 | 0.638 ± 0.044 | 0.653 ± 0.045 | 0.668 ± 0.045
22 | C=CCCCCCC [oct-1-ene] + CCn1cc[n+](C)c1.CS(=O)(=O)[O-] | 374 ± 26 | 356 ± 24 | 325 ± 22 | 300 ± 21 | 277 ± 19
23 | CCCCCCCC [octane] + CCn1cc[n+](C)c1.CS(=O)(=O)[O-] | 1020 ± 110 | 949 ± 100 | 839 ± 89 | 752 ± 79 | 676 ± 71
24 | CCCO [propan-1-ol] + CCn1cc[n+](C)c1.CS(=O)(=O)[O-] | 0.801 ± 0.052 | 0.789 ± 0.051 | 0.771 ± 0.05 | 0.754 ± 0.05 | 0.742 ± 0.049
25 | CC(C)O [propan-2-ol] + CCn1cc[n+](C)c1.CS(=O)(=O)[O-] | 0.974 ± 0.061 | 0.958 ± 0.06 | 0.933 ± 0.059 | 0.913 ± 0.058 | 0.9 ± 0.057
26 | ClC(Cl)(Cl)Cl [tetrachloromethane] + CCn1cc[n+](C)c1.CS(=O)(=O)[O-] | 4.93 ± 0.34 | 5.08 ± 0.35 | 5.36 ± 0.37 | 5.62 ± 0.38 | 5.87 ± 0.4
27 | C1CCOC1 [tetrahydrofuran] + CCn1cc[n+](C)c1.CS(=O)(=O)[O-] | 5.37 ± 0.37 | 5.33 ± 0.36 | 5.24 ± 0.36 | 5.18 ± 0.35 | 5.1 ± 0.35
28 | c1ccsc1 [thiophene] + CCn1cc[n+](C)c1.CS(=O)(=O)[O-] | 2.04 ± 0.14 | 2.06 ± 0.14 | 2.11 ± 0.14 | 2.16 ± 0.15 | 2.2 ± 0.15
29 | Cc1ccccc1 [toluene] + CCn1cc[n+](C)c1.CS(=O)(=O)[O-] | 9.41 ± 0.99 | 9.37 ± 0.99 | 9.23 ± 0.97 | 9.12 ± 0.96 | 9 ± 0.95
30 | ClC(Cl)Cl [trichloromethane] + CCn1cc[n+](C)c1.CS(=O)(=O)[O-] | 0.488 ± 0.037 | 0.515 ± 0.038 | 0.572 ± 0.041 | 0.633 ± 0.044 | 0.694 ± 0.047
